Source: patent US20120122840A1, “COMPOUNDS AND THERAPEUTIC USES THEREOF” (Myrexis, Inc., priority 2009, published 2012)

How the values were obtained:
TTK [1] = target: T1, TTK (Homo sapiens, UniProt P33981); assay: TTK inhibition assay ([γ-33P]ATP transfer to phosphorylated MBP); type: biochemical; parameters: A. Recombinant TTK enzyme; details: read-out: inhibition of the protein kinase activity of TTK, IC50
T1 sequence (P33981 1-857): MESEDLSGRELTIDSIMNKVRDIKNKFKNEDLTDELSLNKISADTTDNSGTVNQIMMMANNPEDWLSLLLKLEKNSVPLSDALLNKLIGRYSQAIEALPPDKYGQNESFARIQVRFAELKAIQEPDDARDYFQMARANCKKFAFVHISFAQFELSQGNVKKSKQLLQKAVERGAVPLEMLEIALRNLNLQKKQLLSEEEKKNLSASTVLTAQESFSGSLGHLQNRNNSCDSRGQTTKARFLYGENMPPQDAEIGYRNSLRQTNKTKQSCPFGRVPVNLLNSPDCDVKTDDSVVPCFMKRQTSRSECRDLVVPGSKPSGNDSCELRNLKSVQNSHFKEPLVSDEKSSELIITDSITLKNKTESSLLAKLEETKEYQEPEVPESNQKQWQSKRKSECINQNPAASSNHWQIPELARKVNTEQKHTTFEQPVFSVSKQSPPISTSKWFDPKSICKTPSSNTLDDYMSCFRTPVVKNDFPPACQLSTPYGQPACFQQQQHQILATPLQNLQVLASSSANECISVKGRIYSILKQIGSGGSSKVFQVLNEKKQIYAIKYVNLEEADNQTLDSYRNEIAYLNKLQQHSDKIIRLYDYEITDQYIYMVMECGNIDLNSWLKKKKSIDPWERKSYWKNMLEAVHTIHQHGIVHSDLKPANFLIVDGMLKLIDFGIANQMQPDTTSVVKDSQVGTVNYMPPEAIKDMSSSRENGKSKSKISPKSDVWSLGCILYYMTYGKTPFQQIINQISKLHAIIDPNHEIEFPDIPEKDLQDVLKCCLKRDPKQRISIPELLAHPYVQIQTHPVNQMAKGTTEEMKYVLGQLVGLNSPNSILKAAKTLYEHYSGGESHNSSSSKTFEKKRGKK
Method: The compounds of the invention were also tested in the following assay to determine TTK-inhibitory activity. This assay measures transfer of radioactive phosphate from ATP to a protein substrate in the presence or absence of a test compound.
MATERIALS: • A. Recombinant TTK enzyme; • B. Phosphorylated myelin basic protein (MBP); • C. [γ-^33P]ATP: 1 mCi/100 μL; • D. Positive Control: a proprietary compound known to have […] in this assay.
Final concentrations of reaction mixture components (50 μl total volume): 50 mM Tris-HCl, pH 7.5; 0.01% Triton X-100; 10 mM MgCl2; 25 ng TTK (˜4 nM); 5 μM Phosphorylated MBP; 40 μM ATP (1 μCi/well, adjusted ATP specific activity according to strength of radiolabeled ATP).
Mixes were assembled in the wells of a 96-well polypropylene plate as follows: 1 μL 50× compound to be tested; 39 μL 1.282× Reaction Mix; 10 μL 5×ATP Mix.
The following reaction/assay steps were then performed: • 1. Mix thoroughly and incubate at room temperature for 45 minutes; • 2. Add 70 μL/well, except in background wells, of 3% phosphoric acid to terminate reaction, and transfer 100 μL to P81 filter plate; • 3. Wash with 1% phosphoric acid, then dry the P81 filter plate completely; • 4. Add 100 μL/well MicroSint-20 (PerkinElmer #6013621) and seal; • 5.

JAK1 = target: T2, JAK1 (Homo sapiens, UniProt P23458); assay: Direct target affinity purification (DTAP) from cell lysates; type: binding; details: compound coupled to Sepharose beads
T2 construct: Cellular proteins were prepared by mild sonication in lysis buffer; endogenous in cells
T2 sequence (P23458 whole entry, species assumed): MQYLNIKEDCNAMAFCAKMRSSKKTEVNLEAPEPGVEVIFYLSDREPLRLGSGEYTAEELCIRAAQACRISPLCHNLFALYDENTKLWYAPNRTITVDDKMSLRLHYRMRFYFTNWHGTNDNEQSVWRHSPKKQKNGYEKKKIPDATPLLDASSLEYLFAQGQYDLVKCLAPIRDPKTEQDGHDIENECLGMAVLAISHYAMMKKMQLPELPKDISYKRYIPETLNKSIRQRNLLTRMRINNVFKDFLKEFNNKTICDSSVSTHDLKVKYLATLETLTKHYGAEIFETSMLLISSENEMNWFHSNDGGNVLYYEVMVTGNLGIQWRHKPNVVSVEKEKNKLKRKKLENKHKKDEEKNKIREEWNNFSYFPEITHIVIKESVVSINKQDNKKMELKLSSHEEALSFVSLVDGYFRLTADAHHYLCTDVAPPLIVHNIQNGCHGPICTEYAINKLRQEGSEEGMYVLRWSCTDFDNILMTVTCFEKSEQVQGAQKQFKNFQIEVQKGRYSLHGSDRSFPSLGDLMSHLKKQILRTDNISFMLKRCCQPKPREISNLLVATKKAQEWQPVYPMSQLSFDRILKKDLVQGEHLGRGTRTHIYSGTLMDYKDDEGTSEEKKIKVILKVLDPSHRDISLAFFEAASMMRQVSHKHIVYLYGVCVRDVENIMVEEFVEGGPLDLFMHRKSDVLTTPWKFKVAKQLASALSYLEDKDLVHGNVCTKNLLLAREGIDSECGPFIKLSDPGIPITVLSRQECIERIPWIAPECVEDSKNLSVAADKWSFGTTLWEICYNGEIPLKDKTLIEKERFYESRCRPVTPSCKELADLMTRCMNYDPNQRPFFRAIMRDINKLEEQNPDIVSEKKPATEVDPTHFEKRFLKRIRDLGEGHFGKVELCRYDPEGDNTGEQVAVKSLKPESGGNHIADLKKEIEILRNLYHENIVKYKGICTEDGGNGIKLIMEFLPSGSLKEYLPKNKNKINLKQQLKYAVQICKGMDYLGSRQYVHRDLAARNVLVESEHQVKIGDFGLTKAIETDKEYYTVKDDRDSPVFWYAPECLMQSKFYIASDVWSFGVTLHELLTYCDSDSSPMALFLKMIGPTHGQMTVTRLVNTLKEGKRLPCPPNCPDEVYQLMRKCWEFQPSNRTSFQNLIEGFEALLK
From the text: (§1) Direct target affinity purification (DTAP) was used to investigate (1) the selectivity of compounds of the invention for TTK, relative to other kinases, and (2) the importance of a specific methyl substituent in providing that selectivity.
(§2) In preparation for DTAP studies, the two compounds depicted above were synthesized with an alkyl-amine linker to allow covalent coupling to epoxy-activated Sepharose 6B beads (GE Healthcare, Piscataway, N.J.). Sepharose beads were swollen and washed with water for 30 min followed by equilibration in coupling buffer (50% dimethylformamide, 50 mM Na2CO3). Beads were pelleted by centrifugation (15 sec at 2000×g) and the supernatant removed by aspiration. An equal volume of coupling buffer containing the linkered test compound was used to resuspend the beads. Compound concentrations in the coupling reaction ranged from 0.1 mM to 12.5 mM. The coupling reactions were incubated at 34° C. for 18 hrs on a rotator mixer. Ethanolamine was added to 1 M for the final 1 hr to quench the coupling reaction. Beads were washed extensively with binding buffer (1 M NaCl, 50 mM Hepes [pH 7.4], 1% Triton X-100, 1 mM EDTA and 1 mM dithiothreitol) to remove residual coupling reagents, and were then stored at 4° C.
(§3) Cellular proteins were prepared by mild sonication in lysis buffer (150 mM NaCl, 50 mM Hepes [pH 7.4], 1% Triton X-100, 1 mM EDTA and 2 mM dithiothrietol containing 1× Halt™ protease and phosphatase inhibitor cocktail [Thermo Fisher Scientific, Rockford, Ill.]). Lysates were centrifuged (20,000×g for 20 min) to remove debris, diluted to a protein concentration of ˜5 mg/ml, divided into aliquots, and stored at −80° C.
(§4) For DTAP reactions, cell lysates (˜0.5 ml per binding reaction) were thawed and the NaCl concentration adjusted to 1 M. Competitor compounds dissolved in DMSO (or a DMSO control) were then added to the lysate and incubated on ice for 5 min. The lysates were centrifuged at 20,000×g for 10 min and the cleared supernatant was transferred to a tube containing 50 μl of coupled beads. The binding reactions were incubated on a rotator mixer at 4° C. for 2 hrs, after which the beads were pelleted by centrifugation and the supernatant removed by aspiration. The beads were washed three times with 20 volumes of binding buffer, 2× with 20 volumes wash buffer (150 mM NaCl, 50 mM Hepes [pH 7.4], 1% Tween 20, 1 mM EDTA, 2 mM dithiothrietol) and finally twice with 10 volumes of 150 mM NaCl, 50 mM Hepes [pH 7.4].
(§5) During the final wash, an aliquot containing 10 μl of beads was transferred to a separate tube and resuspended with 15 μl of 2× SDS/PAGE loading buffer (Invitrogen Corporation, Carlsbad, Calif.) for 5 min at 90° C. The eluted proteins were resolved by electrophoresis on a NuPage 4-12% Bis-Tris Gel (Invitrogen Corporation, Carlsbad, Calif.) and visualized by staining with Ruby Red (Invitrogen Corporation, Carlsbad, Calif.). The remaining beads (40 μl) were processed for analysis by mass spectrometry.

FER = FER (Homo sapiens, UniProt P16591); assay: as above; type: binding; details: compound coupled to Sepharose beads
Sequence of FER (P16591 whole entry, species assumed): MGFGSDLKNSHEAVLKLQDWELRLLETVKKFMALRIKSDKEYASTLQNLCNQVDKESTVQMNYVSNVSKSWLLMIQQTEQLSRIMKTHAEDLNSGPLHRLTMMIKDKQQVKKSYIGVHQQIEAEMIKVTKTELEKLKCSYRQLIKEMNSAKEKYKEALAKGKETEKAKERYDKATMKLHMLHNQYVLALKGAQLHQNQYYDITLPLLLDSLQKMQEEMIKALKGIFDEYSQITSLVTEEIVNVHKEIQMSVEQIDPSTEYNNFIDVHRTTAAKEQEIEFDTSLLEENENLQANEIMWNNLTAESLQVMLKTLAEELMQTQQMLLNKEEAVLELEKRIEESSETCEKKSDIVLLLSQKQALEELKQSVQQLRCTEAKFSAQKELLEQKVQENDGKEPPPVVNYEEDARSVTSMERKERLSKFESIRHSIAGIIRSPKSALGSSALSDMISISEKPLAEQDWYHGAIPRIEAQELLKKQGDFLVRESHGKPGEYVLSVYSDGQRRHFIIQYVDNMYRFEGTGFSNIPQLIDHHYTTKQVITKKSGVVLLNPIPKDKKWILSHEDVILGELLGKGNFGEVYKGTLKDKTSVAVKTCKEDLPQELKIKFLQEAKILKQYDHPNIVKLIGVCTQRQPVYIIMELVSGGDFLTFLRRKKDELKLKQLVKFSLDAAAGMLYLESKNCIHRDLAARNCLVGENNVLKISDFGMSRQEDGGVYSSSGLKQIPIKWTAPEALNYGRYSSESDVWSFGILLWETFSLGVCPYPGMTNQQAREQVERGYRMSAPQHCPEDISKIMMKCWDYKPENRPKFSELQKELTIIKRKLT
From the text: as §1, §2, §3, §4, §5

TTK [2] = target: T1, TTK; assay: as above; type: binding; details: compound coupled to Sepharose beads
From the text: as §1, §2, §3, §4, §5

JNK = JNK (Homo sapiens, UniProt P45983); assay: as above; type: binding; details: compound coupled to Sepharose beads
Sequence of JNK (P45983 whole entry): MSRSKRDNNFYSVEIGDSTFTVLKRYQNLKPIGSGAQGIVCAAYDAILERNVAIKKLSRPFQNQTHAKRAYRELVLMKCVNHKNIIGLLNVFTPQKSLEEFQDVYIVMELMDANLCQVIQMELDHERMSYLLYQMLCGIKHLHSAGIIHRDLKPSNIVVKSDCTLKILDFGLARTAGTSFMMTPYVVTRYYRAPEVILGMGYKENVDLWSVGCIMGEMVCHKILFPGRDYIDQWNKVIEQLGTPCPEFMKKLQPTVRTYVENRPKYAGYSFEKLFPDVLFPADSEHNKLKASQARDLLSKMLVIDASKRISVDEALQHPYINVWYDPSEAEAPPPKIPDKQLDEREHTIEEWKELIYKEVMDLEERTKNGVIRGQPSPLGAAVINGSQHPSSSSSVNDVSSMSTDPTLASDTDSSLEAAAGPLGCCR
From the text: as §1, §2, §3, §4, §5

- IC50 (TTK [1]): 8 nM
- binding of JAK1 from cell lysates to bead-coupled compound (JAK1): found to bind
- binding of FER from cell lysates to bead-coupled compound (FER): found to bind
- binding of TTK from cellular lysates to bead-coupled compound (TTK [2]): high affinity
- binding of JNK from cell lysates to bead-coupled compound (JNK): found to bind
Compound: NCCCOc1ccc(Nc2nc(NC3CCCCC3)c3nc[nH]c3n2)cc1 [N2-[4-(3-aminopropoxy)phenyl]-N-6-cyclohexyl-9H-purine-2,6-diamine]
